Measured values: patent US8846733B2, “Oxazolyl-methylether derivatives as ALX receptor agonists” (Actelion Pharmaceuticals Ltd., priority 2010, dated 2014)
pEC50: −log10 of the molar value.

Experiments:
[1] = Plasma stability assay, rat plasma; assay type: in vitro ADME; details: for half-life at 1 μM: pH 7.4, 37° C.
Method: (§1) Rat or human plasma adjusted at pH 7.4 with lactic acid or ammonium hydroxide, were equilibrated at 37° C. under orbital shaking in an incubator containing 5% CO2. The reaction was initiated by the addition of 1 μM of compounds (1 μl of 1 mM stock solution in DMSO in 999 μl of plasma). At 0.01 h, 0.25 h, 0.5 h, 1 h, 2 h, 4 h, 6 h and 24 h, aliquots (30 μl) were transferred in a 96 well plate containing 90 μl MeOH placed on ice to stop the reaction. After vortexing for 20 min at 1400 rpm on an Eppendorf thermomixer, the plates were centrifuged at 3220 g for 20 min at 4° C. and the supernatants were analyzed with LC-MSMS. Calibration samples in plasma containing 0.1% of dichlorvos were prepared and analysed in parallel to the incubation samples to allow the quantification. Half lives in hours were then calculated. In addition the remaining concentration of the respective compound after time Tlast relative to the concentration at the beginning has been determined (table 3).

[2] = Plasma stability assay, human plasma; assay type: in vitro ADME; details: for remaining concentration at Tlast / half-life at 1 μM: human plasma; for half-life at 1 μM: pH 7.4, 37° C.
Method: as §1

[3] = Plasma stability assay with tritiated compounds, human plasma; assay type: in vitro ADME
Method: (§2) Rat or human plasma adjusted at pH 7.4 with lactic acid were equilibrated at 37° C. under orbital shaking. The reaction was initiated by the addition of 10 μM of tritiated compound (7.5 μl of 1 mM stock solution in DMSO in 742.5 μl of plasma). At the beginning and after 4 h, 6 h and 24 h, aliquots (100 μl) were transferred in a tube containing 400 μl MeOH placed on ice to stop the reaction. After vortexing for 20 min at 1400 rpm on an Eppendorf thermomixer, the plates were centrifuged at 3220 g for 20 min at 4° C. and an aliquot of supernatants was analyzed with liquid chromatography coupled to a H3-radiodetector. The remaining pellet was further extracted with AcCN in three additional cycles of resuspension, mixing 20 min at 2000 rpm on an eppendorf thermomixer and centrifugation (3220 g for 20 min at 4° C.). The total radioactivity was measured in the collected supernatants. The final pellet was then solubilized in NaOH 1N and the total radioactivity was measured (table 4).

[4] = Plasma stability assay with tritiated compounds, rat plasma; assay type: in vitro ADME
Method: as §2

[5] = molecular target: T1, recombinant human ALX receptor (Homo sapiens, UniProt P25090); test: Intracellular calcium measurements (FLIPR), ALX receptor agonistic activity; assay type: cell-based; details: HEK293-hALXR-Gα16 cells; Table 1, exemplified compounds
T1 construct: expressed in transfected cells; host or cells: HEK293 (HEK293-hALXR-Gα16)
T1 sequence (P25090 1-351): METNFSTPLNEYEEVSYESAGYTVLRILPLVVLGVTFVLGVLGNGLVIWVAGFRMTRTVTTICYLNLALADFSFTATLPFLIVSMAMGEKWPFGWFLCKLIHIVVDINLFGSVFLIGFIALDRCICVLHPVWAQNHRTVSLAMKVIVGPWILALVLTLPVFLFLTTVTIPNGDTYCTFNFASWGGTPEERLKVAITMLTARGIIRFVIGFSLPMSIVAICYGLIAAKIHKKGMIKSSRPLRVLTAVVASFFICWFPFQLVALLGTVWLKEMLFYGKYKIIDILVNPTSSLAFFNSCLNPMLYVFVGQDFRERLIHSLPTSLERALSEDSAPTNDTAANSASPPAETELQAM
Method: The ALX receptor agonistic activity of the compounds of formula (I) is determined in accordance with the following experimental method.
Intracellular Calcium Measurements:
Cells expressing recombinant human ALX receptor and the G-protein Gα16 (HEK293-hALXR-Gα16) were grown to 80% confluency in Growing Medium (GM). Cells were detached from culture dishes with a cell dissociation buffer (Invitrogen, 13151-014), and collected by centrifugation at 1,000 rpm at rt for 5 min in Assay Buffer (AB) (equal parts of Hank's BSS (Gibco, 14065-049) and DMEM without Phenol Red (Gibco, 11880-028)). After 60 min incubation at 37° C. under 5% CO2 in AB supplemented with 1 μM Fluo-4 (AM) (Invitrogen, F14202) and 20 mM HEPES (Gibco, 15630-056), the cells were washed and resuspended in AB. They were then seeded onto 384-well FLIPR assay plates (Greiner, 781091) at 50,000 cells in 70 μl per well and sedimented by centrifugation at 1,000 rpm for 1 min. Stock solutions of test compounds were made up at a concentration of 10 mM in DMSO, and serially diluted in AB to concentrations required for activation dose response curves. WKYMVm (Phoenix Peptides) was used as a reference agonist. A FLIPR Tetra instrument (Molecular Devices) was operated according to the manufacturer's standard instructions, adding 4 μl of test compound dissolved at 10 mM in DMSO and diluted prior to the experiment in assay buffer to obtain the desired final concentration. Changes in fluorescence were monitored before and after the addition of test compounds at lex=488 nm and lem=540 nm. Emission peak values above base level after compounds addition were exported after base line subtraction. Values were normalized to high-level control (WKYMVm compound, 10 nM final concentration) after subtraction of the base line value (AB addition).

For CC(=O)c1coc(Cn2ncc(NC(=O)c3nc(C)oc3-c3cccc(C)c3)n2)n1 [reference compound 11, N-(2-((4-acetyloxazol-2-yl)methyl)-2H-1,2,3-triazol-4-yl)-2-methyl-5-(m-tolyl)oxazole-4-carboxamide], the “remaining concentration at Tlast” value ([1]; Tlast 6 h) was 42%, the half-life at 1 μM [1] was 282 min and the “remaining concentration at Tlast” value ([2]; Tlast 6 h) was 18%. For the same compound, the half-life at 1 μM [2] was 144 min, the total radioactivity ([3]; human plasma pellet, nominal incubation time 0.01 h) was 918 dpm and the total radioactivity ([3]; human plasma pellet, nominal incubation time 4.0 h) was 170136 dpm. The total radioactivity ([3]; human plasma pellet, nominal incubation time 6.4 h) was 185420 dpm, the total radioactivity ([3]; human plasma pellet, nominal incubation time 24.4 h) was 227567 dpm and the total radioactivity ([3]; human plasma supernatant, nominal incubation time 0.01 h, 10 μM tritiated compound) was 158854 dpm. The total radioactivity ([3]; human plasma supernatant, nominal incubation time 4.0 h) was 38918 dpm, the total radioactivity ([3]; human plasma supernatant, nominal incubation time 6.4 h) was 10532 dpm and the total radioactivity ([3]; human plasma supernatant, nominal incubation time 24.4 h) was 3134 dpm. The “association of drug related material with plasma proteins, in words” value ([3]; rat and human plasma, tritiated compound, radioactivity moving from supernatant to pellet) was “strong association of drug related material with plasma proteins”, the total radioactivity ([4]; rat plasma pellet, nominal incubation time 0.01 h) was 419 dpm and the total radioactivity ([4]; rat plasma pellet, nominal incubation time 4.0 h) was 124853 dpm. For the same compound, the total radioactivity ([4]; rat plasma pellet, nominal incubation time 6.4 h) was 153683 dpm, the total radioactivity ([4]; rat plasma pellet, nominal incubation time 24.4 h) was 180032 dpm and the total radioactivity ([4]; rat plasma supernatant, nominal incubation time 0.01 h, 10 μM tritiated compound) was 173116 dpm. For the same compound, the total radioactivity ([4]; rat plasma supernatant, nominal incubation time 4.0 h) was 94798 dpm, the total radioactivity ([4]; rat plasma supernatant, nominal incubation time 6.4 h) was 45228 dpm and the total radioactivity ([4]; rat plasma supernatant, nominal incubation time 24.4 h) was 4816 dpm.

In the case of COCc1coc(Cn2ncc(NC(=O)c3nc(C)oc3-c3cccc(C)c3)n2)n1 [Example 2, N-(2-((4-(Methoxymethyl)oxazol-2-yl)methyl)-2H-1,2,3-triazol-4-yl)-2-methyl-5-(m-tolyl)oxazole-4-carboxamide], the “remaining concentration at Tlast” value ([1]; Tlast 24 h) was 88%, the half-life at 1 μM [1] was > 1440 min and the “remaining concentration at Tlast” value ([2]; Tlast 24 h) was 101%. The half-life at 1 μM [2] was > 1440 min, the “stability in plasma, in words” value ([2]; rat and human plasma, compared with reference compound 11 / compounds of WO 2009/077990) was “remarkably more stable” and the pEC50 [5] was 8.77.

COCc1coc(Cn2ncc(NC(=O)c3nc(C)oc3-c3cccc(F)c3)n2)n1 [Example 9, 5-(3-Fluorophenyl)-N-(2-((4-(methoxymethyl)oxazol-2-yl)methyl)-2H-1,2,3-triazol-4-yl)-2-methyloxazole-4-carboxamide] showed a pEC50 [5] of 8.43.
